Publication PMC3849131, “^18 F-click labeling and preclinical evaluation of a new ^18 F-folate for PET imaging” (EJNMMI Research, 2013)
Read-outs that look alike come from different tables or passages of the source.

What was measured:
[1] = Relative lipophilicity (capacity factor k’) by reversed-phase HPLC; assay type: physicochemical; conditions: methanol-phosphoric acid buffer eluent, pH 2
Method: The relative lipophilicity of 6 was determined as capacity factor k’ (k’ = (tretention - tsolvent) / tsolvent) by reversed-phase HPLC using a methanol-phosphoric acid buffer eluent system at pH 2. […] This method has already been described elsewhere. The capacity factor k’ (k’ = (tretention - tsolvent) / tsolvent) was determined using reversed-phase HPLC and enables different (radio)folates to be compared based on their polarity. The values determined can be used to give hint to the in vivo behavior in terms of the degree of hepatobiliary excretion by comparison with literature examples.

[2] = target: T1, folate receptor (Homo sapiens, UniProt P15328); assay: Displacement assay with [^3H]folic acid on FR-positive human KB cells; assay type: binding
T1 construct: using [^3H]folic acid and human KB cells in cell suspension; endogenous in cells; host or cells: human KB cells
T1 sequence (P15328 25-257): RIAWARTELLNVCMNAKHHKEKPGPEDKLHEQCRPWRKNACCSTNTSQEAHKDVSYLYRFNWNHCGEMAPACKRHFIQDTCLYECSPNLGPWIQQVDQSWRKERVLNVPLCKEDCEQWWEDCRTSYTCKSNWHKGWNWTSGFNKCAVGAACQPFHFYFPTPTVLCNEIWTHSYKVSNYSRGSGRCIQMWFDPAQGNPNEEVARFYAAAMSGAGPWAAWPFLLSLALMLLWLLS
Method: FR-positive human KB cells were kept under folate-deficient conditions to adjust the folate concentration levels to that of the human serum.
Figure 1 Displacement assay. […] Experiments were conducted in triplicate (n = 3).

[3] = test system: KB tumor-bearing mice; conditions: 45 min p.i., n = 4, cited from earlier work
[4] = reversed-phase HPLC; cited from earlier work

Row | Structure (SMILES) | capacity factor k’ [1] | IC50 [2] [nM] | Ki [2] [nM] | Ratio of tumor to Kidney [3] | Ratio of tumor to Liver [3] | %ID/g Blood ([3]; Blood) [%ID/g] | %ID/g Bone ([3]; Bone) [%ID/g] | %ID/g Feces ([3]; Feces) [%ID/g] | %ID/g Gall bladder ([3]; Gall bladder) [%ID/g] | %ID/g Heart ([3]; Heart) [%ID/g] | %ID/g Intestines (empty) ([3]; Intestines (empty)) [%ID/g] | %ID/g Tumor ([3]; KB tumor) [%ID/g] | %ID/g Kidneys ([3]; Kidneys) [%ID/g] | %ID/g Liver ([3]; Liver) [%ID/g] | %ID/g Lung ([3]; Lung) [%ID/g] | %ID/g Spleen ([3]; Spleen) [%ID/g] | %ID/g Stomach (empty) ([3]; Stomach (empty)) [%ID/g] | capacity factor k’ [4]
1 | Nc1nc2ncc(CNc3ccc(C(=O)N[C@@H](CCC(=O)NCCOCCOCCOCCn4cc(COCCOCCOCCF)nn4)C(=O)O)cc3)nc2c(=O)[nH]1 [Compound 6] | 1.12 | 3.1 | 1.6 |  |  |  |  |  |  |  |  |  |  |  |  |  |  | 
2 | Nc1nc2ncc(CNc3ccc(C(=O)NC(CCC(=O)NCCCCn4cc(CCCC[18F])nn4)C(=O)O)cc3)nc2c(=O)[nH]1 (stereo not drawn) [^18 F-click folate] |  |  |  | 0.19 ± 1.38 | 1.18 ± 0.69 | 0.13 ± 0.01 | 0.13 ± 0.01 | 56.00 ± 27.64 | 667.4 ± 530.1 | 0.90 ± 0.22 | 19.59 ± 5.26 | 3.13 ± 0.83 | 16.53 ± 2.22 | 1.71 ± 0.14 | 0.85 ± 0.04 | 0.33 ± 0.12 | 2.50 ± 0.6 | 2.28
